Experimental data from patent US20260034103A1, “COMPOSITIONS AND METHODS FOR IMPROVING MEMORY AND COGNITION” (priority 2022, published 2026).

Legend:
[1] = tested on: Sprague Dawley rat hippocampal slices; experiment: Ex vivo electrophysiology: paired-pulse ratio (short-term plasticity), CA1 with Schaffer collateral stimulation; format: cell-based; settings: 10 nM and 100 nM; interstimulus intervals 50-400 ms; vs vehicle 0.01% DMSO
Experimental: Response is Stratum radiatum of area CA1 of the hippocampus with Schaffer collateral stimulation. Statistical differences correspond to the ones observed between Compound 1 10 nM and Vehicle groups.
Statistical differences correspond to the ones observed between Compound 1 100 nM and Vehicle groups.
(§1) The effect of compound 1 to enhance mEPSPs may be dependent on the influx of extracellular calcium.

[2] = tested on: Sprague Dawley rat hippocampal slices; experiment: Ex vivo electrophysiology: short-lasting long-term potentiation (S-LTP) at hippocampal CA1 synapses; format: cell-based; settings: 10 nM; single 1-sec train of 100-Hz stimulation
Text: Time-point 0 represents delivery of HFS. Slopes of fEPSP are normalized to baseline and plotted against time.
as §1

[3] = tested on: Long-Evans rats; experiment: Novel object recognition test, scopolamine-induced cognitive impairment; format: in vivo, rat; settings: 0.1 and 1 mg/kg PO
Experimental: Total exploration time of two identical objects in the acquisition trial was measured manually and indicated as the mean±SEM (n=8). No statistical difference was found in the total exploration time among the different groups by one-way ANOVA (P=0.115).
NDI was calculated using the following equation: novel object interaction time/total interaction time×100(%). Data are represented as the mean±SEM (n=8). Significant difference from control group was indicated by ***P<0.001 (Student's t-test). Significant differences from scopolamine-treated vehicle group were indicated by ##P<0.01 (Dunnett test). Significant difference from scopolamine-treated vehicle group were indicated by †††P<0.001 (Student's t-test).
Exploration time of each object in retention trial was measured manually and presented as the mean±SEM (n=8). Significant differences from familiar object interaction were indicated by **P<0.01, *P<0.05 (paired t-test).
A novel object recognition test (which evaluates visual learning and memory) was conducted to investigate the effect of compound 1 on scopolamine-induced cognitive impairment in Long-Evans rats. Donepezil was used as a positive control. Scopolamine at 0.1 mg/kg SC reduced the novelty discrimination index (NDI) a measure of cognitive function (FIGS. 4-6).

[4] = tested on: rats; experiment: Freely behaving rodent model of long-term potentiation (LTP); format: in vivo, rat; settings: 0.01 and 0.1 mg/kg IV
Experimental: Amplitudes of fEPSP are normalized to baseline and plotted against time.
A freely behaving rodent model of long-term potentiation (LTP), a frequently studied form of synaptic plasticity, was employed. LTP is a persistent increase in the strength of synaptic connections between neurons, and is a cellular mechanism widely considered to underlie the processes of learning and memory. At 0.01 and 0.1 mg/kg IV compound 1 increased LTP compared to vehicle controls (FIGS. 10-11).

[5] = tested on: adult subjects with major depressive disorder (MDD); experiment: Phase 2 clinical trial in MDD: QIDS-SR Item #10 Concentration/Decision Making; format: in vivo, human; parameters: key to QIDS-SR Item #10 score, Median / QIDS-SR Item #10 score, Min / QIDS-SR Item #10 score, Max: QIDS-SR Item 10 scored 0 (no change) to 3 (cannot concentrate/decide); settings: 20 mg/day; for QIDS-SR Item #10 Change from Baseline, Max / QIDS-SR Item #10 Change from Baseline, Mean (SD) / QIDS-SR Item #10 Change from Baseline, Median / QIDS-SR Item #10 Change from Baseline, Min / QIDS-SR Item #10 score, Max / QIDS-SR Item #10 score, Mean (SD) / QIDS-SR Item #10 score, Median / QIDS-SR Item #10 score, Min: mITT, Females
Experimental: (§2) A Phase 2, multicenter, double-blind, randomized, placebo-controlled study of the safety and efficacy of SP-624 in the treatment of adult subjects with major depressive disorder (MDD) as defined by the Diagnostic and Statistical Manual of Mental Disorders, Fifth Edition (DSM-5) was carried out. Following the successful completion of a Screening Phase, subjects were randomized to one of two treatment groups in a 1:1 ratio and received Compound 1 (SP-624) or placebo over a treatment period of four weeks (Treatment Group #1: SP-624 20 mg/day; Treatment Group #2: Placebo).
(§3) Prior to initiating the 4-week treatment period, subjects completed a Screening/Baseline period of up to 28 days, during which time all screening assessments were performed, and any current depression medications discontinued. All screening assessments were completed before discontinuing any current depression medications. Subjects returned for a Baseline Visit to complete efficacy and safety assessments. During the treatment period, subjects returned to the investigative site to complete efficacy and safety assessments at the end of Weeks 1, 2, 3, and 4. After the final dose of study drug, subjects completed a follow-up period of two weeks and returned at the end of Weeks 5 and 6. Subjects may be treated with anti-depressant medications according to physician recommendations after completion of the Week 5 Visit.
(§4) Each dose of Compound 1 was supplied as two capsules, each containing 10 mg of active pharmaceutical ingredient (API). Matching placebo capsules identical in shape and color to the active capsules were used.
The study included several measurements related to cognitive function. The first is the QIDS-SR) Item #10 Concentration/Decision Making. The answer scale is: 0—There is no change in my usual capacity to concentrate or make decisions; 1—I occasionally feel indecisive or find that my attention wanders; 2—Most of the time, I struggle to focus my attention or to make decisions; 3—I cannot concentrate well enough to read or cannot make even minor decisions.

[6] = tested on: adult subjects with major depressive disorder (MDD); experiment: Phase 2 clinical trial in MDD: HAM-D Item #17 Retardation; format: in vivo, human; settings: 20 mg/day; for HAM-D Item #17 Retardation Change From Baseline, Max / HAM-D Item #17 Retardation Change From Baseline, Mean (SD) / HAM-D Item #17 Retardation Change From Baseline, Median / HAM-D Item #17 Retardation Change From Baseline, Min / HAM-D Item #17 Retardation score, Max / HAM-D Item #17 Retardation score, Mean (SD) / HAM-D Item #17 Retardation score, Median / HAM-D Item #17 Retardation score, Min: mITT, Females
Experimental: as §2, §3, §4
The second cognitive function measurement is HAM-D Item #17 Retardation (slowness of thought and speech, impaired ability to concentrate, decreased motor activity). The answer scale is: 0—Normal speech and thought; 1—Slight retardation at interview (mild psychomotor retardation); 2—Obvious retardation at interview (moderate, some difficulty with interview, noticeable pauses and slowness of thought); 3—Interview difficult (severe psychomotor retardation, very long pauses); 4—Complete stupor (extreme retardation, interview barely possible).

In the case of `COC1=CC(=O)C[C@@H](C)[C@]12Oc1c(Cl)c(-c3nnc(C)o3)cc(OC)c1C2=O` [Compound 1, (2S,6′R)-7-Chloro-2′,4-dimethoxy-6′-methyl-6-(5-methyl-1,3,4-oxadiazol-2-yl)-3H-spiro[1-benzofuran-2,1′-cyclohex[2]ene]-3,4′-dione], the “short-term plasticity (paired-pulse ratio)” value [1] is reported as “enhanced short-term plasticity”, the “short-lasting long-term potentiation (S-LTP)” value [2] is reported as “tended to increase” and the “novelty discrimination index (NDI) reduced by scopolamine” value [3] is reported as “significantly improved”. For the same compound, the “LTP compared to vehicle controls” value [4] was “increased LTP”, the “QIDS-SR Item #10 Change from Baseline, Max” value ([5]; Week 2) was 1 and the “QIDS-SR Item #10 Change from Baseline, Mean (SD)” value ([5]; Week 2) was −0.3 (0.71). The “QIDS-SR Item #10 Change from Baseline, Median” value ([5]; Week 2) was 0.0, the “QIDS-SR Item #10 Change from Baseline, Min” value ([5]; Week 2) was −3 and the “QIDS-SR Item #10 score, Max” value ([5]; Week 2) was 3. For the same compound, the “QIDS-SR Item #10 score, Mean (SD)” value ([5]; Week 2) was 1.5 (0.82), the “QIDS-SR Item #10 score, Median” value ([5]; Week 2) was 2.0 and the “QIDS-SR Item #10 score, Min” value ([5]; Week 2) was 0. The “QIDS-SR Item #10 Change from Baseline, Max” value ([5]; Week 4) was 1, the “QIDS-SR Item #10 Change from Baseline, Mean (SD)” value ([5]; Week 4) was −0.6 (0.80) and the “QIDS-SR Item #10 Change from Baseline, Median” value ([5]; Week 4) was 0.0. For the same compound, the “QIDS-SR Item #10 Change from Baseline, Min” value ([5]; Week 4) was −3, the “QIDS-SR Item #10 score, Max” value ([5]; Week 4) was 3 and the “QIDS-SR Item #10 score, Mean (SD)” value ([5]; Week 4) was 1.2 (0.86). For the same compound, the “QIDS-SR Item #10 score, Median” value ([5]; Week 4) was 1.0, the “QIDS-SR Item #10 score, Min” value ([5]; Week 4) was 0 and the “QIDS-SR Item #10 Concentration/Decision Making, improvement in score vs placebo” value ([5]; by week 4 of treatment) was “greater improvement in score”. The “HAM-D Item #17 Retardation Change From Baseline, Max” value ([6]; Week 2) was 2, the “HAM-D Item #17 Retardation Change From Baseline, Mean (SD)” value ([6]; Week 2) was −0.2 (0.79) and the “HAM-D Item #17 Retardation Change From Baseline, Median” value ([6]; Week 2) was 0. The “HAM-D Item #17 Retardation Change From Baseline, Min” value ([6]; Week 2) was −2, the “HAM-D Item #17 Retardation score, Max” value ([6]; Week 2) was 2 and the “HAM-D Item #17 Retardation score, Mean (SD)” value ([6]; Week 2) was 0.6 (0.71). The “HAM-D Item #17 Retardation score, Median” value ([6]; Week 2) was 0, the “HAM-D Item #17 Retardation score, Min” value ([6]; Week 2) was 0 and the “HAM-D Item #17 Retardation Change From Baseline, Max” value ([6]; Week 4) was 1. For the same compound, the “HAM-D Item #17 Retardation Change From Baseline, Mean (SD)” value ([6]; Week 4) was −0.4 (0.82), the “HAM-D Item #17 Retardation Change From Baseline, Median” value ([6]; Week 4) was 0 and the “HAM-D Item #17 Retardation Change From Baseline, Min” value ([6]; Week 4) was −2. The “HAM-D Item #17 Retardation score, Max” value ([6]; Week 4) was 2, the “HAM-D Item #17 Retardation score, Mean (SD)” value ([6]; Week 4) was 0.4 (0.55) and the “HAM-D Item #17 Retardation score, Median” value ([6]; Week 4) was 0. For the same compound, the “HAM-D Item #17 Retardation score, Min” value ([6]; Week 4) was 0 and the “HAM-D Item #17 Retardation, improvement in score vs placebo” value ([6]; by week 4 of treatment) was “greater improvement in score”.
